Assays:
[1] = tested on: pancreata / islet cells of donor rats; test: Islet cell yields after treatment of donor pancreata; format: in vivo, rat (Lewis); details: for Islet yield: P<0.05 vs control; for Islet yield at 100 μM relative to 10 μM: 100 μM through the pancreatic duct
Procedure: MBV and BV IXα (obtained from Frontier Scientific, Inc., Logan Utah) (both at 1, 10, or 100 μM) were administered to IVC-dissected animals through the pancreatic duct at 37° C. Control animals received no treatment. Pancreata were removed from donor rats (Lewis, BW>300 g), incubated with University of Wisconsin solution and preserved using the two-layer method. See Ito et al., Improvement of canine islet yield by donor pancreas infusion with a p38MAPK inhibitor, Transplantation 86(2): 321-329 (2008). After 20 to 22 hours, islet cells were isolated using the 2-step digestion method after distention with collagenase and then purified by discontinuous Ficoll gradient centrifugation in a COBE 2991 cell processor. See Matsumoto et al., Improvement of pancreatic islet cell isolation for transplantation, Proc. (Bayl. Univ. Med. Cent.) 20(4): 357-362 (2007). Islet cells were counted microscopically and the numbers converted to IEQ (number of islets equivalent to 150 um in diameter.

[2] = biological target: T1, recombinant human liver BVR (Homo sapiens, UniProt P53004); test: BVR enzyme assay (Biliverdin Reduction Kit); format: biochemical; details: 10-fold dilution of 100 μg mL^−1, enzyme and NADPH, spectrophotometric 300-800 nm, up to 360 minutes
T1 construct: purchased Sigma-Aldrich (St. Louis, Mo.) CS1100; host or cells: Escherichia coli
T1 sequence (P53004 3-296): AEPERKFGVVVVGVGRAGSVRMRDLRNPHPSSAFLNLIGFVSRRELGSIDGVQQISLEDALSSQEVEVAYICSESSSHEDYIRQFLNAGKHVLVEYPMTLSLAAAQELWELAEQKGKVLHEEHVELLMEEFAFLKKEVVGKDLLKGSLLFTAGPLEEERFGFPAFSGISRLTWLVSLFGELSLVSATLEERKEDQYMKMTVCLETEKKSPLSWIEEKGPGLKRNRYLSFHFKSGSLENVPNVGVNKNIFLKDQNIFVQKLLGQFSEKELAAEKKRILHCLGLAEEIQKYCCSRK
Procedure: The Sigma-Aldrich (St. Louis, Mo.) Biliverdin Reduction Kit (catalog #CS1100) and method was used to determine biliverdin reductase (“BVR”) activities with MBV, BV IXα, or phycocyanobilin as substrates. The kit-supplied enzyme was human liver BVR expressed in a recombinant Escherichia coli strain. Before use, MBV, BV IXα, or phycocyanobilin, each at 100 μg mL^−1 in methanol, were diluted 10-fold in the kit-supplied assay buffer, mixed with enzyme and NADPH, and conversion to mesobilirubin IXα, bilirubin IXα, or phycocyanobilirubin was measured spectrophotometrically between 300 and 800 nm for up to 360 minutes.

[3] = tested on: transplanted islet cells in recipient rats; test: Treatment of donor pancreata followed by islet cell autotransplantation; format: in vivo, rat (Lewis)
Procedure: Pancreata removed from donor rats (Lewis, BW>300 g) were infused with University of Wisconsin solution containing MBV or BV IXα at 1, 10, or 100 μM through the pancreatic duct and preserved using the 2-layer method in Hank's balanced salt solution containing 5% autologous serum as described in Example 5. After 20 to 22 hours, islets were isolated and 3000 IEQ/kg were autotransplanted by infusion into the portal vein of the corresponding rat.

db/db and obese mice = test: Glucose tolerance in type 2 diabetes, db/db and obese mice; format: in vivo; details: example in present tense
Procedure: MBV (2, 20 and 100 mg kg^−1 daily) is orally administered to 5-week-old db/db and obese mice for 4 weeks. Control mice are given the same feed without added MBV. After 4 weeks, glucose tolerance and insulin tolerance tests are performed. See Ikeda et al., Biliverdin protects against the deterioration of glucose tolerance in db/db mice, Diabetologia 54:2183-2191 (2011). Insulin content is evaluated by immunostaining and ELISA. Oxidative stress markers (8-hydroxy-2′-deoxyguansosine and dihydroethidium staining) and expression of […] are evaluated in isolated islets.

[4] = tested on: HRT 18 colon cancer cells xenograft; test: Xenograft colonic tumor model; format: in vivo, BALB/c nude mice; details: 1, 10 and 100 mg/kg twice daily intraperitoneally vs PBS; example in present tense
Procedure: (§1) HRT-18 cells are seeded in 6-well plates in a concentration of 25×10^4 cells per well. After 24 hours, incubation, cells are treated with MBV IXα (1, 10, and 100 μM) or phosphate buffered saline (PBS) as a control. Cells are washed, detached with trypsin and resolved in 1 mL of growth media. 100 μL of […] are then analyzed for cell number, viability and cell size. In a xenograft colonic tumor model (see Ollinger et al., Bilirubin Inhibits Tumor Cell Growth via Activation of ERK, Cell Cycle 6:3078-3085 (2007)), 2.5×10^6 HRT 18 colon cancer cells are injected subcutaneously into the lower flank of BALB/c nude mice. At 14 days, MBV treatment is begun by injection of 1, 10 and 100 mg/kg body weight or PBS (controls) twice daily intraperitoneally and tumor diameters are measured daily using a caliper.

[5] = tested on: HRT-18 colon cancer cells; test: HRT-18 colon cancer cell proliferation in vitro; format: cell-based; details: 1, 10 and 100 μM vs PBS control; example in present tense
Procedure: as §1

[6] = tested on: Rat thoracic aortic vascular smooth muscle (A7r5) cells; test: Suppression of angiotensin II-induced inflammation in A7r5 cells (superoxide anion, NADH/NADPH oxidase); format: cell-based; details: angiotensin II-treated A7r5 cells; example in present tense
Procedure: Rat thoracic aortic vascular smooth muscle (A7r5) cells cultured in Dulbecco's modified Eagle's medium supplemented with 10% fetal calf serum and 2 mM glutamine are exposed to various concentrations of angiotensin II and MBV for various lengths of time before harvesting. The cells are scraped into balanced salt solution, washed twice by centrifugation, and finally suspended at a density of 2×10^6 cells per mL in the same solution containing 10 mM glucose and 1 mg per mL bovine serum albumin. Superoxide anion levels (of suspensions with 9×10^5 cells) are measured with a luminometer and a commercial luminogen-based detection kit (LumiMax, Agilent Technologies. Inc.).
Angiotensin II and MBV-treated cells suspended in phosphate-buffered saline (with protease inhibitors) are disrupted at ice temperature using a Dounce homogenizer. The cell extracts are fractionated into microsomal membrane and cytosol fractions by standard differential centrifugation procedures. Microsomes, containing plasma and mitochondrial membranes, are recovered as pellets after centrifugation at 29,100 g for 20 min at 4° C. NADH/NADPH oxidase activities of the microsomal fractions are measured with a luminometer and a commercial luminogen-based kit (LumiMax, Agilent Technologies. Inc.).

[7] = 1 μM through the pancreatic duct
[8] = 10 μM through the pancreatic duct
[9] = infusion of pancreata through the duct before preservation

Compound | Increase of islet yield over non-treated controls ([1]; 1 μM) [fold] | Islet yield [1, 7] [IEQ/g] | Increase of islet yield over non-treated controls ([1]; 10 μM) [fold] | Islet yield [1, 8] [IEQ/g] | Islet yield at 100 μM relative to 10 μM [1] | BVR activity with the compound as substrate (conversion to reduced product) [2] | Islet cell yields (IEQ values) assessed by laser scanning cytometry ([3]; MBV-treated donor pancreata vs untreated control pancreata) | Tumor necrosis factor α expression (real-time RT-PCR) ([3]; MBV-treated group vs controls) | Plasma C peptide levels after glucagon challenge ([3]; animals receiving MBV-treated islets vs islets from untreated control pancreata) | Adverse effect on islet function [3, 9] | Islet cell apoptosis [3, 9] | Glycemia of recipient rats ([3]; rats transplanted with MBV-treated islets vs untreated islets) | Development of hyperglycemia and glucose intolerance (db/db and obese mice; 2, 20 and 100 mg kg^−1 daily orally, 4 weeks) | Levels of oxidative stress markers and NADPH oxidase activities (db/db and obese mice; oral feeding 4 weeks, compared to controls) | Apoptosis and Bax expression in islets from db/db mice (db/db and obese mice; oral feeding 4 weeks) | Insulin levels and Pdxl expression (db/db and obese mice; oral feeding 4 weeks) | Xenograft tumor formation in vivo [4] | HRT-18 colonic cell proliferation in vitro [5] | Angiotensin II-induced inflammatory processes (NADH/NADPH oxidase activation, superoxide anion production) [6]
C=CC1=C(C)/C(=C\c2[nH]c(/C=C3N=C(/C=C4/NC(=O)C(C)=C4C=C)C(C)=C/3CCC(=O)O)c(CCC(=O)O)c2C)NC1=O [BV IXα, Biliverdin (“BV”) IXα, reference compound] | 1.04 | 1328±358 | 1.24 | 1616±451 | did not increase islet yields beyond those with 10 μM concentration |  |  |  |  |  |  |  |  |  |  |  |  |  | 
C/C=C1/C(=C\c2[nH]c(/C=C3N=C(/C=C4/NC(=O)C(CC)=C4C)C(C)=C/3CCC(=O)O)c(CCC(=O)O)c2C)NC(=O)C1C (stereo not shown) [phycocyanobilin, reference compound] |  |  |  |  |  | poor and relatively inactive catalytic substrate |  |  |  |  |  |  |  |  |  |  |  |  | 
meso-biliverdin IXα [MBV] | 1.87 | 1599±475 | 1.54 | 1318±804 | did not increase islet yields beyond those with 10 μM concentration | kinetics that resembled those for BV IXα conversion to bilirubin IXα | higher | significantly lower | higher | no adverse effect on islet function | prevented islet cell apoptosis | more euglycemic | at least partially prevents | lower and normal compared to those of controls | decreases | increases | reduces | reduces | suppresses these inflammatory processes

Reference: patent publication US9119842B2, “Therapeutic meso-biliverdin IXα compositions and associated methods” (Utah State University, priority 2012, dated 2015)
